In ChEMBL document CHEMBL2331193, “Structure-based fragment screening is demonstrated to be a practical lead discovery method for a representative G-protein-coupled receptor” (J Med Chem, 2013):

Molecular target: Beta-1 adrenergic receptor (Homo sapiens, UniProt P08588)
Assay: Binding affinity to beta1 adrenergic receptor (unknown origin)

Sequence of Beta-1 adrenergic receptor (P08588 whole entry): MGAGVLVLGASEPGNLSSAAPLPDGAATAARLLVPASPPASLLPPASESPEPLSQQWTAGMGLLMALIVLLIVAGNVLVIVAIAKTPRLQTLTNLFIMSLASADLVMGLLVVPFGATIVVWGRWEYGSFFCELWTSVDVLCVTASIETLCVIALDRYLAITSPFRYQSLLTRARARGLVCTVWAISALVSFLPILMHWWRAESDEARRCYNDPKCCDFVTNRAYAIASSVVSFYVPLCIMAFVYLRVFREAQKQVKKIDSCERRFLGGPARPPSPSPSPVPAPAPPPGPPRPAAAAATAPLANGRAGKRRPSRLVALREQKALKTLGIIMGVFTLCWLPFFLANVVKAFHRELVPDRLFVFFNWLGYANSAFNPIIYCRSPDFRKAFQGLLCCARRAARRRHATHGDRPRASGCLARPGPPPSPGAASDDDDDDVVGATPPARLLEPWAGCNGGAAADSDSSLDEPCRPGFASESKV

Cc1cc(N2CCNCC2)nc2ccccc12
Ki: 220 nM
